Measured values: PMC7066280 (Investigational New Drugs, 2019)
“Also recorded” adds a separate entry of the source. Like-named read-outs stand apart in the source and are kept apart here.

Tests used:
[1] = Dose proportionality assessment of AUC and Cmax (power model); assay type: in vivo, human
Method: Dose proportionality after multiple dosing was tested using data from the QD dose regimens without the 100 mg BID dose group. To assess dose proportionality, the confidence interval (CI) for the slope was estimated, with each natural logarithm (ln)-transformed PK parameter as the dependent variable and the ln-transformed dose as the fixed effect. Analysis was performed using PK parameter estimates at day −3, cycle 1, day 15, and cycle 2, day 1. Dose proportionality was concluded if the 95% CI around the slope included 1 and if the slope was between 0.8 and 1.2 (inclusive).

plasma 2-HG = assay: Plasma 2-HG pharmacodynamics in patients with IDH1-mutant tumors; assay type: in vivo, human
Method: (§1) These samples were optional for any further patients enrolled in these cohorts. Further blood samples were collected from all patients up to 10 h postdose on cycle 1, day 15 and cycle 2, day 1. A subset of samples was also used for evaluation of plasma 4β-hydroxycholesterol (4β-OHC) and 4β-OHC:cholesterol ratios. Blood samples for assessment of 2-HG only were also collected at screening.
Additional predose samples were taken on cycle 1, day 8; cycle 1, day 15; cycle 3, day 1; and end of treatment.
(§2) Plasma ivosidenib was measured using two validated liquid chromatography-tandem mass spectrometry (LC-MS/MS) methods. The lower limit of quantification (LLOQ) was 1.00 ng/mL (low-range assay) or 50.0 ng/mL (high-range assay). […] Plasma 2-HG concentrations were measured using a qualified LC-MS/MS method with an LLOQ of 30.0 ng/mL. Concentrations of 2-HG in tumor biopsy samples were quantified using qualified LC-MS/MS methods with an LLOQ of 7.5 μg/g for brain tumor homogenate, 100 ng/g for liver tumor homogenate (low-range assay), and 30 μg/g for liver tumor homogenate (high-range assay). Plasma 4β-OHC and cholesterol were measured using a validated LC-MS/MS method. The LLOQ was 5 ng/mL for 4β-OHC and 25 μg/mL for cholesterol in human plasma.
(§3) PK parameters included area under the plasma concentration-time curve (AUC), maximum plasma concentration (Cmax), time to maximum plasma concentration (Tmax), terminal elimination half-life (t1/2), and apparent oral clearance at steady state (CLss/F). Accumulation ratio (Racc), based on Cmax and AUC, was also assessed during the dose escalation portion. PD (2-HG) parameters included baseline-effect value, area under the effect concentration-time curve (AUEC0-10h for the dose escalation portion, or AUEC0-8h for the dose escalation and expansion portions), percent change from baseline in AUEC (%BAUEC0-10h for the escalation portion, or %BAUEC0-8h for the dose escalation and expansion portions), average plasma concentration (Cavg), and percent inhibition for Cavg (%BCavg). For the dose escalation portion, the time-matched ratios of 4β-OHC to cholesterol were calculated.

[2] = Ivosidenib plasma PK after multiple oral doses (dose escalation); assay type: in vivo, human; conditions: for Cmax / AUC(0-t) / AUC / Tmax: human, plasma, oral; for Cmax / AUC(0-t) / AUC: geometric mean; for AUC(0-t): read-out: AUC0-10hr; for AUC: read-out: AUC0-tau
Method: In the dose escalation portion, patients with 1) glioma and 2) non-glioma solid tumors were enrolled into sequential cohorts using a standard 3 + 3 design. […] At least 3 patients in each cohort also received a single dose 3 days prior to the start of multiple dosing (i.e., day −3).
as §1, §2, §3

[3] = tested on: IDH1-mutant advanced solid tumors; conditions: Cmax,ss or AUCss vs best response, dose range tested
From the text: A total of 6 adverse event categories, based on both laboratory abnormalities and reported adverse events, were included in the exposure-response analyses. […] The efficacy endpoint of interest was best response. The exposure-response analyses used modeled nominal steady-state Cmax (Cmax,ss) or AUC (AUCss) as predictors for safety and efficacy variables in the two subgroups of tumor types described earlier.

[4] = Effect of intrinsic and extrinsic factors on ivosidenib CLss/F; assay type: in vivo, human; conditions: 500 mg QD, cycle 2 day 1
Method: Continuous factors assessed included age, body weight, body mass index, baseline creatinine clearance (CLcr), baseline estimated glomerular filtration rate (eGFR), and markers of hepatic function (alanine aminotransferase [ALT], alkaline phosphatase [ALP], aspartate aminotransferase [AST], bilirubin, total protein, and albumin). CLcr was calculated using the Cockcroft and Gault equation and eGFR was calculated using the Modification of Diet in Renal Disease – National Kidney Disease Education Program equations [15]. Categorical factors assessed included sex, ethnicity, race, disease status, concomitant CYP3A4 inhibitor and inducer status, baseline hepatic and renal function category, and tumor type. Renal function was categorized as normal (CLcr ≥ 90 mL/min or eGFR ≥90 mL/min/1.73 m^2), mild impairment (CLcr ≥ 60–89 mL/min or eGFR ≥60–89 mL/min/1.73 m^2), moderate impairment (CLcr ≥ 30–59 mL/min or eGFR ≥30–59 mL/min/1.73 m^2), and severe impairment (CLcr ≥ 15–29 mL/min or eGFR ≥15–29 mL/min/1.73 m^2). Hepatic function category was based on National Cancer Institute (NCI) organ dysfunction working group (ODWG) criteria for hepatic dysfunction (0 = normal, 1 = mild, 2 = moderate, 3 = severe, 4 = liver transplant).

[5] = 100 mg, non-glioma solid tumors, 100 mg BID, cycle 2 day 1
[6] = 300 mg, glioma, 300 mg QD, cycle 2 day 1
[7] = 300 mg, non-glioma solid tumors, 300 mg QD, cycle 2 day 1
[8] = 400 mg, non-glioma solid tumors, 400 mg QD, cycle 2 day 1
[9] = 500 mg, glioma, 500 mg QD, cycle 2 day 1
[10] = 500 mg, non-glioma solid tumors, 500 mg QD, cycle 2 day 1
[11] = 600 mg, glioma, 600 mg QD, cycle 2 day 1
[12] = 800 mg, non-glioma solid tumors, 800 mg QD, cycle 2 day 1
[13] = 900 mg, glioma, 900 mg QD, cycle 2 day 1
[14] = 1200 mg, non-glioma solid tumors, 1,200 mg QD, cycle 2 day 1

SMILES: N#Cc1ccnc(N2C(=O)CC[C@H]2C(=O)N(c2cncc(F)c2)[C@H](C(=O)NC2CC(F)(F)C2)c2ccccc2Cl)c1 [ivosidenib]
- increase in ivosidenib exposure for a doubling of dose ([1]; patients with glioma): ~40%
- increase in ivosidenib exposure for a doubling of dose ([1]; patients with non-glioma solid tumors): ~70%
- plasma 2-HG reduction (plasma 2-HG; after multiple doses, patients with cholangiocarcinoma or chondrosarcoma): up to 98%
- plasma 2-HG inhibition compared with baseline (plasma 2-HG; after one week of continuous dosing, cholangiocarcinoma and chondrosarcoma): up to 98%
- plasma 2-HG mean Cavg percent inhibition (BCavg%) (plasma 2-HG; cholangiocarcinoma, 500 mg multiple dose, cycle 1 day 15): 79%
- plasma 2-HG mean Cavg percent inhibition (BCavg%) (plasma 2-HG; cholangiocarcinoma, 500 mg multiple dose, cycle 2 day 1): 80%
- plasma 2-HG mean Cavg percent inhibition (BCavg%) (plasma 2-HG; cholangiocarcinoma, single dose, 500 mg): 46%
- plasma 2-HG mean Cavg percent inhibition (BCavg%) (plasma 2-HG; chondrosarcoma, 500 mg multiple dose, cycle 1 day 15): 54%
- plasma 2-HG mean Cavg percent inhibition (BCavg%) (plasma 2-HG; chondrosarcoma, 500 mg multiple dose, cycle 2 day 1): 59%
- plasma 2-HG mean Cavg percent inhibition (BCavg%) (plasma 2-HG; chondrosarcoma, single dose, 500 mg): 30%
- accumulation at steady state ([2]; day 15): approximately 1.5 fold
- Cmax [2, 5]: 3560 ng/mL
- AUC(0-t) [2, 5]: 28600 ng·h/mL
- AUC [2, 5]: 33600 ng·h/mL
- Tmax ([2]; 100 mg, non-glioma solid tumors, 100 mg BID, cycle 2 day 1, median, read-out: Tmax): 2.5 h
- Cmax [2, 6]: 3290 ng/mL
- AUC(0-t) [2, 6]: 23700 ng·h/mL
- AUC [2, 6]: 50800 ng·h/mL
- Tmax ([2]; 300 mg, glioma, 300 mg QD, cycle 2 day 1, median, read-out: Tmax): 2.54 h
- Cmax [2, 7]: 3160 ng/mL
- AUC(0-t) [2, 7]: 23400 ng·h/mL
- AUC [2, 7]: 53200 ng·h/mL
- Tmax ([2]; 300 mg, non-glioma solid tumors, 300 mg QD, cycle 2 day 1, median, read-out: Tmax): 2.05 h
- Cmax [2, 8]: 6800 ng/mL
- AUC(0-t) [2, 8]: 51600 ng·h/mL
- Tmax ([2]; 400 mg, non-glioma solid tumors, 400 mg QD, cycle 2 day 1, median, read-out: Tmax): 3.03 h
- Cmax [2, 9]: 2900 ng/mL
- AUC(0-t) [2, 9]: 20500 ng·h/mL
- AUC [2, 9]: 44400 ng·h/mL
- Tmax ([2]; 500 mg, glioma, 500 mg QD, cycle 2 day 1, median, read-out: Tmax): 2 h
- Cmax [2, 10]: 4420 ng/mL
- AUC(0-t) [2, 10]: 33900 ng·h/mL
- AUC [2, 10]: 72800 ng·h/mL
- Tmax ([2]; 500 mg, non-glioma solid tumors, 500 mg QD, cycle 2 day 1, median, read-out: Tmax): 2.96 h
- Cmax [2, 11]: 3800 ng/mL
- AUC(0-t) [2, 11]: 29100 ng·h/mL
- AUC [2, 11]: 59800 ng·h/mL
- Tmax ([2]; 600 mg, glioma, 600 mg QD, cycle 2 day 1, median, read-out: Tmax): 2 h
- Cmax [2, 12]: 6050 ng/mL
- AUC(0-t) [2, 12]: 44500 ng·h/mL
- Tmax ([2]; 800 mg, non-glioma solid tumors, 800 mg QD, cycle 2 day 1, median, read-out: Tmax): 2 h
- Cmax [2, 13]: 4100 ng/mL
- AUC(0-t) [2, 13]: 31100 ng·h/mL
- AUC [2, 13]: 64500 ng·h/mL
- Tmax ([2]; 900 mg, glioma, 900 mg QD, cycle 2 day 1, median, read-out: Tmax): 2.52 h
- Cmax [2, 14]: 7580 ng/mL
- AUC(0-t) [2, 14]: 57700 ng·h/mL
- AUC [2, 14]: 120000 ng·h/mL
- Tmax ([2]; 1200 mg, non-glioma solid tumors, 1,200 mg QD, cycle 2 day 1, median, read-out: Tmax): 2.92 h
- Tmax ([2]; after multiple doses, glioma and non-glioma solid tumors, read-out: median Tmax): 2 to 3 h
- steady state reached by ([2]; multiple dosing, cycle 1): ≤ 15 days
- steady state for ivosidenib plasma exposure and plasma 2-HG inhibition reached within ([2]; of cycle 1): ≤ 14 days
- exposure-efficacy relationship [3]: flat
- effect of concomitant weak CYP3A4 inhibitors or inducers on CLss/F [4]: no apparent effect; also recorded: did not appear to affect
- effect of mild or moderate renal impairment or mild hepatic impairment on CLss/F [4]: no apparent effect
